In PubChem BioAssay (NCI) one finds GI50 and TGI data, which are given here for eleven molecules.

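Exposure lasted 48 hours, with cells grown in 96-well plates and compounds tested at five concentrations. GI50 marks 50% less growth. TGI marks complete inhibition of growth.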

Experiment in all cases: NCI tumour cell line growth inhibition, 48 h
The subject of experiment [1] is A498 renal.
Experiment [2] has as its system HCT-116 colon.
In experiment [3] the test system is HCT-15 colon.
The test system of experiment [4] is HT29 colon.
Experiment [5] deals with K-562 leukemia.
The subject of experiment [6] is NCI-H460 lung.
The test system of experiment [7] is OVCAR-3 ovarian.
The subject of experiment [8] is OVCAR-5 ovarian.
Experiment [9] has as its system RPMI-8226 leukemia.
Experiment [10] relates to RXF 393 renal.

`Cc1cc2c(cc1Cl)S/C(=C/C(=O)O)C(Nc1cccc3nsnc13)=NS2(=O)=O`: the GI50 in [1] was above 100 µM; in experiment [2], 33.5 µM; in [3], above 54.7 µM; in experiment [4] it was 6.17 µM; in experiment [5], 70.1 µM; in [6], above 39.8 µM. Moreover, the GI50 in [7] is 47.5 µM; in [8], 34.6 µM; in experiment [9], 10.7 µM; in experiment [10] it was above 52.7 µM. For the same molecule, the TGI in [1] was above 100 µM; in [2], above 59.2 µM; in [3] it was above 68.8 µM; in experiment [4], above 63.1 µM; in [5], above 100 µM; in [6] it was above 65.1 µM. The TGI in [7] was above 69.8 µM; in experiment [8], above 67.4 µM; in experiment [9] it was 40.6 µM; in [10] it was above 68.5 µM.

`Cc1nc(-c2cccnc2)sc1C(=O)/C=C/c1cccc([N+](=O)[O-])c1`: the TGI in experiment [1], in [3], in experiment [4], in [5], in experiment [6] and in experiment [7] was above 100 µM each time. For the same molecule, the TGI in [8], in experiment [9] and in [10] was above 100 µM in each case.

With `COc1ccc(-c2c(C3=NCCCN3)nnn2-c2ccc([N+](=O)[O-])cc2)cc1`, the TGI in [1], in experiment [2], in [3], in experiment [4], in experiment [5] and in [6] was above 100 µM in each case. Moreover, the TGI in [7], in [8], in experiment [9] and in experiment [10] was above 100 µM each time.

In the case of `C=CCNC(=O)N(CCC)CCCC(NC(C)=O)C(=O)NCc1ccccc1` (stereo not drawn), the TGI in [1], in experiment [3], in experiment [4], in [5], in [6] and in [7] was above 100 µM throughout. Moreover, the TGI in [8], in experiment [9] and in [10] was above 100 µM in each case.

In the case of `O=C(c1cccs1)C1NO[N+]([O-])=C1c1cccs1` (stereo not drawn), the GI50 in experiment [1] was 1.95 µM; in experiment [2], 3.03 µM; in [3], 3.43 µM; in [4], 1.94 µM; in experiment [5], 3.02 µM; in [6], 5.37 µM. Further, the GI50 in experiment [7] is 1.79 µM; in experiment [8], 7.62 µM; in [9], 2.36 µM; in experiment [10] it was 1.68 µM. The TGI was 6.3 µM in experiment [1]; 10.2 µM in experiment [2]; 14.7 µM in experiment [3]; 3.65 µM in experiment [4]; above 100 µM in experiment [5]; 13.1 µM in experiment [6]. The TGI in [7] was 3.2 µM; in experiment [8], 20.4 µM; in [9], 6.2 µM; in [10], 3.42 µM.

Take `O=C(Cl)C1=C(c2ccccc2)C1c1ccccc1` (stereo not drawn): the TGI in experiment [1], in [2], in experiment [3], in experiment [4], in [5] and in experiment [6] was above 100 µM each time. Further, the TGI in experiment [7], in [8], in experiment [9] and in experiment [10] was above 100 µM in each case.

`CCN(CC)c1ccc(/C=C/C2=[N+](C)c3ccccc3C2(C)C)c(C)c1`: the GI50 in experiment [1] was 0.11 µM; in experiment [2], below 0.02 µM; in [3], 0.321 µM; in experiment [4], 0.0463 µM; in experiment [5], 0.0377 µM; in [6], below 0.0222 µM. Moreover, the GI50 is 0.0616 µM in experiment [7], 0.128 µM in experiment [8], below 0.0164 µM in experiment [9] and 0.0837 µM in experiment [10]. Besides, the TGI in experiment [1] was 4.02 µM; in [2], 3.82 µM; in [3] it was 10.9 µM; in experiment [4], 1.32 µM; in [5] it was 12.2 µM; in experiment [6], 1.3 µM. Further, the TGI was found to be 1.47 µM in [7], 16.8 µM in experiment [8], 0.466 µM in experiment [9] and 2.85 µM in experiment [10].

With `CCCCCCCCCCCCCCCCCCOCC(COCCOCC[N+]1(CCCCCC(=O)[O-])CCCC1)Oc1ncccn1` (stereo not drawn), the TGI in experiment [1] was 9.55 µM; in experiment [2] it was 15.8 µM; in experiment [3] it was 25.5 µM; in [4], 13.7 µM; in [5], 14.2 µM; in experiment [6], 16.8 µM. Moreover, the TGI is 20.4 µM in experiment [7], 13.9 µM in experiment [8], 8.96 µM in experiment [9] and 10.4 µM in experiment [10].

For `Cc1c(C)c(CC(=O)N2CC2)c(C)c(C)c1CC(=O)N1CC1`, the TGI in experiment [1] was 32.1 µM; in experiment [2] it was 28.5 µM; in [3], above 58.2 µM; in experiment [4], above 75.1 µM; in experiment [5] it was above 92.7 µM; in [6] it was 50.2 µM. In addition, the TGI was 51.4 µM in experiment [7], above 83.8 µM in experiment [8], 55.5 µM in experiment [9] and 12.8 µM in experiment [10].

As for `c1ccc2[nH]c(CNc3ccc(C4C[Se]N=N4)cc3)nc2c1` (stereo not drawn), the TGI in experiment [1], in experiment [2], in experiment [3], in experiment [4], in [5] and in experiment [6] was above 100 µM in each case. The TGI was 96.9 µM in [7], above 100 µM in experiment [8], 81.3 µM in experiment [9] and above 100 µM in [10].

As to `CCOC(OC1=C(C#N)CCCC1)C(CC)[Se]c1ccccc1` (stereo not drawn), the TGI in [1] is above 100 µM; in experiment [2], 28.6 µM; in experiment [3], 33 µM; in [4], 73.6 µM; in [5], above 100 µM; in experiment [6], 34.2 µM. Besides, the TGI in [7] amounted to 54.6 µM; in [8] it was 86.4 µM; in experiment [9], 50.1 µM; in [10], 31.1 µM.
